Legend:
Format in all cases: in vivo
Caenorhabditis elegans = experiment: Lifespan analysis of Caenorhabditis elegans; settings: C. elegans
Procedure: In step of analyzing the lifespan of Caenorhabditis elegans, for chemical treatment in Caenorhabditis elegans, chemical was added to the nematode growth medium (NGM) dishes. The NGM with agarose was autoclaved and then cooled down to below 65° C. The different concentrations of chemical were added to NGM. The NGM was then poured into 60 mm dishes and incubated at room temperature overnight. The solidified NGM dishes were stored at 4° C. Escherichia coli OP50 strain was used as the food source for C. elegans. A single colony of OP50 was incubated in 200 mL of lysogeny broth (LB) medium at 37° C. overnight. The OP50 was then killed by incubation at 65° C. for […]. The dead OP50 was spread throughout the surface of the NGM dishes. The NGM dishes with dead OP50 and CBD were stored at 4° C. for up to 2 weeks. The synchronization of C. elegans was carried out by the bleaching method. 20 L4 larvae were picked to each 60 mm dish with different concentrations of chemical and cultured at 20° C. They were monitored every day, and the number of living, dead and missing C. elegans were recorded. The C. elegans were transferred to fresh Petri dishes every 2 days to separate the target worms from their offspring and to ensure if they had enough food source. 10-20 μM of CBD was identified to be the optimal dosage for extending the lifespan of C. elegans.

[1] = test system: liver of LMNA^G609G/G609G mice; experiment: Senescence-associated beta-galactosidase staining of mouse liver; settings: CBD treated LMNA^G609G/G609G mice
Procedure: In the step of study the histology of mouse skin and liver, the mice were sacrificed by cervical dislocation under anesthesia by intraperitoneal (IP) injection of 100 mg/kg ketamine and 16 mg/kg xylazine in sterile water. Major organs, including skin, muscle, intestine, kidney, spleen, liver, lung, heart, aorta, were collected. Half of the tissues were snap-frozen in liquid nitrogen and stored at −80° C. for extraction of proteins and RNA. Another half of the tissues were fixed in 4% paraformaldehyde (PFA) in PBS and shook at 4° C. overnight. For paraffin wax sections, the fixed tissues were incubated in 70% ethanol and shook at 4° C. overnight. Followed by stepwise dehydration of tissues in 90%, 95%, 100%, and 100% ethanol for 1 hour each. Then the tissues were incubated in 50% xylene and 50% ethanol for 30 to 40 minutes and transferred to 100% xylene for 10 to 15 minutes. The tissues were then incubated in wax for 30 minutes and transferred to new wax for 3 times. Then the tissues were placed in the wax inside a vacuum chamber overnight. On the following day, the tissues were embedded into paraffin blocks and sectioned into slides with 6 μm in thickness. After the tissue sections were dried, they were incubated in xylene solution twice each for 5 minutes. […]

[2] = test system: ATF5, CEBPα and TRIB3 in skin of LMNA^G609G/G609G mice; experiment: Immunofluorescence staining of mouse skin; settings: CBD treated premature aging mice
Procedure: The tissue sections were washed twice with PBS and incubated in PBSTr (0.1% Triton X-100 in PBS) for 10 minutes. Then the cells were blocked with 5% fetal bovine serum (FBS) in PBSTr for 1 hour at room temperature. Primary antibodies diluted in 5% FBS in PBSTr were added and incubated at 4° C. overnight. On the following day, the cells were washed three times using PBSTr, incubation for 10 minutes each time. Secondary antibodies diluted in 5% FBS in PBSTr were added and incubated at room temperature for 1 hour. The cells were again washed three times using PBSTr, followed by PBS for two times. The slides were mounted with SlowFade Gold antifade reagent. Then the slides were ready to be analyzed under a confocal microscope.

Q: What does the source list for C=C(C)[C@@H]1CCC(C)=C[C@H]1c1c(O)cc(CCCCC)cc1O [CBD, Cannabidiol]?
A: maximum lifespan increase (Caenorhabditis elegans; 10 or 20 μM CBD): 8-12.5%; median lifespan increase (Caenorhabditis elegans; 10 or 20 μM CBD): 55-61.5%; optimal dosage for extending the lifespan (Caenorhabditis elegans; CBD in NGM dishes, 20° C.): 10 to 20 µM; increase of senescent cells in liver [1]: rescued; ATF5 protein level decrease in skin [2]: reversed; CEBPα protein level decrease in skin [2]: reversed; TRIB3 protein level decrease in skin [2]: reversed
